pEC50, pIC50: −log10 of the molar value. Structures can show the parent of a compound that is named as a salt. Where two headings read alike, the source gives them in different places.
Legend:
[1] = biological target: T1, F1F0-ATPase (Bos taurus, UniProt P13621); test: Inhibition of F1F0-ATPase activity in synthesizing ATP; type: biochemical; conditions: inhibition of ATP synthesis; detection limit IC50=16 μM; read-out: ATP Syn IC50
T1 construct: from tissue
Experimental: (§1) Exemplary compounds described in above Examples were tested for activity against F1F0-ATPase by measuring the ability of the compounds to inhibit ATP synthesis. In addition, the compounds were assessed for cytotoxicity in Ramos cells. Inhibition of F1F0-ATPase activity in synthesizing ATP and cytotoxicity in Ramos cells were measured according to the procedures described in K. M. Johnson et al. Chemistry & Biology 2005, 12, 485-496.

[2] = system: Ramos cells; test: Cytotoxicity in Ramos cells; type: cell-based; conditions: detection limit EC50=16 μM, read-out: Ramos Cell EC50
Experimental: as §1

pIC50 [1] | Compound | pEC50 ([2]; Homo sapiens) | pEC50 [2]
> 5.30 | CCC(C)NC(=NC(=O)c1ccc(Cl)c(F)c1)Nc1n[nH]c2cc(C(F)(F)F)ccc12 (stereo not drawn) [Compound A-16] | 4.80 to 5.30 | 
> 5.30 | CCOCCNC(=NC(=O)c1cccc(Cl)c1)Nc1n[nH]c2cc(F)ccc12 [Compound A-99] |  | 4.80 to 5.30
> 5.30 | COC[C@H](C)N/C(=N/C(=O)c1ccc(F)c(F)c1)Nc1n[nH]c2cc(F)ccc12 [Compound A-79] |  | > 5.30
> 5.30 | O=C(/N=C(\Nc1n[nH]c2cc(C(F)(F)F)ccc12)NC1CCOCC1)c1ccc(Cl)c(F)c1 [Compound A-21] | 4.80 to 5.30 | 
> 5.30 | CC(C)(C)N/C(=N/C(=O)c1ccc(F)c(F)c1)Nc1n[nH]c2ccc(F)cc12 [Compound A-3] |  | 4.80 to 5.30
4.80 to 5.30 | COCC(C)NC(=NC(=O)c1ccc(F)c(F)c1)Nc1n[nH]c2c(Cl)cccc12 (stereo not drawn) [Compound A-84] | < 4.80 | 
< 4.80 | CC(C)(C)N/C(=N/C(=O)c1ccc(F)c(F)c1)Nc1n[nH]c2c(C(F)(F)F)cccc12 [Compound A-57] |  | 4.80 to 5.30
> 5.30 | O=C(/N=C(/Nc1cc(F)cc(Cl)c1)Nc1n[nH]c2ccc(F)cc12)c1ccc(F)c(F)c1 [Compound A-112] | > 5.30 | 
> 5.30 | COCC(C)NC(=NC(=O)c1ccc(Cl)cc1)Nc1n[nH]c2cc(Cl)ccc12 (stereo not drawn) [Compound A-64] | > 5.30 | 
> 5.30 | CC(C)(C)NC(=NC(=O)c1cccc(Cl)c1)Nc1n[nH]c2cc(F)ccc12 [Compound A-97] |  | > 5.30
> 5.30 | CC(C)(C)N/C(=N/C(=O)c1ccc(F)c(F)c1)Nc1n[nH]c2ccc(C(F)(F)F)cc12 [Compound A-50] |  | > 5.30
< 4.80 | CC(C)CN/C(=N/C(=O)c1ccc(F)c(F)c1)Nc1n[nH]c2ccccc12 [Compound A-35] |  | < 4.80
< 4.80 | CCOCCN/C(=N/C(=O)c1ccc(F)c(F)c1)Nc1n[nH]c2cncc(Cl)c12 [Compound A-44] |  | < 4.80
> 5.30 | CC(C)CNC(=NC(=O)c1cccc(Cl)c1)Nc1n[nH]c2cc(Cl)c(F)cc12 [Compound A-105] |  | 4.80 to 5.30
> 5.30 | CC(C)(C)N/C(=N/C(=O)c1ccc(F)c(F)c1)Nc1n[nH]c2cncc(Cl)c12 [Compound A-40] |  | > 5.30
< 4.80 | CC(C)(C)N/C(=N/C(=O)c1ccc(C(F)(F)F)cc1)Nc1n[nH]c2ncccc12 [Compound A-62] |  | < 4.80
4.80 to 5.30 | CC1(CN/C(=N/C(=O)c2ccc(F)c(F)c2)Nc2n[nH]c3ccccc23)COC1 [Compound A-39] |  | < 4.80
> 5.30 | COc1cc(F)c2c(NC(=NC(=O)c3ccc(F)c(F)c3)NC(C)(C)C)n[nH]c2c1 [Compound A-110] |  | 4.80 to 5.30
4.80 to 5.30 | CC(C)CN/C(=N/C(=O)c1ccc(O)cc1)Nc1n[nH]c2cc(F)ccc12 [Compound A-91] |  | < 4.80

pIC50 [1] | Compound | pEC50 ([2]; Homo sapiens) | pEC50 [2]
> 5.30 | CC1(N/C(=N/C(=O)c2ccc(Cl)cc2)Nc2n[nH]c3ccccc23)CCC1 [Compound A-1] | 4.80 to 5.30 | 
> 5.30 | CC(C)(C)N/C(=N/C(=O)c1ccc(N2CCOCC2)nc1)Nc1n[nH]c2cc(C(F)(F)F)ccc12 [Compound A-23] |  | 4.80 to 5.30
< 4.80 | O=C(/N=C(/NCCOCCO)Nc1n[nH]c2cc(C(F)(F)F)ccc12)c1ccc(Cl)c(F)c1 [Compound A-22] |  | < 4.80
> 5.30 | CC(C)CNC(=NC(=O)c1cccc(Cl)c1)Nc1n[nH]c2cc(F)ccc12 [Compound A-98] |  | > 5.30
< 4.80 | CC(C)CN/C(=N/C(=O)c1ccc(F)c(F)c1)Nc1n[nH]c2ncccc12 [Compound A-70] |  | < 4.80
< 4.80 | CC(C)(O)CN/C(=N/C(=O)c1cccc(O)c1)Nc1n[nH]c2cc(F)ccc12 [Compound A-94] |  | 4.80 to 5.30
4.80 to 5.30 | CC(C)CNC(=NC(=O)c1ccc(O)cc1)Nc1n[nH]c2cc(F)ccc12 [Compound A-109] |  | 4.80 to 5.30
> 5.30 | CC(C)CNC(=NC(=O)c1ccc(F)c(F)c1)Nc1n[nH]c2cc(Cl)c(F)cc12 [Compound A-101] |  | > 5.30
> 5.30 | CC(C)N/C(=N/C(=O)c1ccc(F)c(F)c1)Nc1n[nH]c2c(F)cccc12 [Compound A-76] |  | > 5.30
> 5.30 | COC[C@H](C)N/C(=N/C(=O)c1ccc(F)c(F)c1)Nc1n[nH]c2ccc(C(F)(F)F)cc12 [Compound A-53] |  | < 4.80
4.80 to 5.30 | COC[C@H](C)N/C(=N/C(=O)c1cccc(O)c1)Nc1n[nH]c2cc(F)ccc12 [Compound A-93] |  | 4.80 to 5.30
> 5.30 | CC(C)CN/C(=N/C(=O)c1ccc(F)c(F)c1)Nc1n[nH]c2ccc(C(F)(F)F)cc12 [Compound A-51] |  | > 5.30
< 4.80 | COC[C@H](C)N/C(=N/C(=O)c1ccc(F)c(F)c1)Nc1nn(C)c2cc(C(F)(F)F)ccc12 [Compound A-114] | < 4.80 | 
< 4.80 | CCOCCN/C(=N/C(=O)c1ccc(F)c(F)c1)Nc1n[nH]c2cccnc12 [Compound A-49] |  | < 4.80
> 5.30 | CCOCCCNC(=NC(=O)c1ccc(F)c(F)c1)Nc1n[nH]c2cc(C(F)(F)F)ccc12 [Compound A-11] |  | > 5.30
> 5.30 | CCOCCNC(=NC(=O)c1ccc(F)c(F)c1)Nc1n[nH]c2cc(Cl)c(F)cc12 [Compound A-102] |  | > 5.30
< 4.80 | CCOCCN/C(=N/C(=O)c1ccc(F)c(F)c1)Nc1n[nH]c2ccccc12 [Compound A-38] |  | < 4.80
> 5.30 | CC(C)(C)NC(=NC(=O)c1ccc(F)c(F)c1)Nc1n[nH]c2cc(Cl)c(F)cc12 [Compound A-100] |  | > 5.30
> 5.30 | CCOCCN/C(=N/C(=O)c1ccc(Cl)cc1)Nc1n[nH]c2cc(Cl)ccc12 [Compound A-63] |  | 4.80 to 5.30

pIC50 [1] | Compound | pEC50 ([2]; Homo sapiens) | pEC50 [2]
> 5.30 | CC(C)(C)CNC(=NC(=O)c1ccc(N2CCOCC2)nc1)Nc1n[nH]c2cc(C(F)(F)F)ccc12 [Compound A-27] | < 4.80 | 
< 4.80 | COC[C@H](C)N/C(=N/C(=O)c1ccc(F)c(F)c1)Nc1n[nH]c2cncc(F)c12 [Compound A-33] |  | < 4.80
> 5.30 | CC(C)(O)CN/C(=N/C(=O)c1ccc(Cl)cc1)Nc1n[nH]c2cc(F)ccc12 [Compound 2, 4-Chloro-N-((6-fluoro-1H-indazol-3-ylamino)((2-hydroxy-2-methylpropyl)amino)methylene)benzamide] | < 4.80 | 
> 5.30 | CC(C)CN/C(=N/C(=O)c1ccc(F)c(F)c1)Nc1n[nH]c2ccc(F)cc12 [Compound A-4] |  | 4.80 to 5.30
> 5.30 | COC[C@H](C)NC(=NC(=O)c1cccc(Cl)c1)Nc1n[nH]c2cc(Cl)c(F)cc12 [Compound A-107] |  | > 5.30
< 4.80 | COCC(C)NC(=NC(=O)c1ccc(F)c(F)c1)Nc1n[nH]c2cncc(Cl)c12 (stereo not drawn) [Compound A-43] | < 4.80 | 
> 5.30 | COCC(C)NC(=NC(=O)c1cccc(Cl)c1)Nc1n[nH]c2cc(F)ccc12 (stereo not drawn) [Compound A-85] | < 4.80 | 
< 4.80 | O=C(/N=C(/Nc1cc(F)cc(Cl)c1)Nc1n[nH]c2cccc(F)c12)c1ccc(F)c(F)c1 [Compound A-113] | < 4.80 | 
4.80 to 5.30 | CC(C)(C)N/C(=N/C(=O)c1ccc(O)cc1)Nc1n[nH]c2cc(F)ccc12 [Compound A-92] |  | > 5.30
> 5.30 | CCC(C)N/C(=N/C(=O)c1ccc(F)c(F)c1)Nc1n[nH]c2cc(C(F)(F)F)ccc12 (stereo not drawn) [Compound A-9] |  | > 5.30
< 4.80 | CC(C)CN/C(=N/C(=O)c1ccc(F)c(F)c1)Nc1n[nH]c2cccc(F)c12 [Compound A-6] |  | < 4.80
< 4.80 | COC[C@H](C)N/C(=N/C(=O)c1ccc(F)c(F)c1)Nc1n[nH]c2cccnc12 [Compound A-48] |  | < 4.80
> 5.30 | COC[C@H](C)N/C(=N/C(=O)c1cccc(Cl)c1)Nc1n[nH]c2cc(Cl)ccc12 [Compound A-78] |  | > 5.30
4.80 to 5.30 | COC[C@H](C)NC(=NC(=O)c1ccc(F)c(F)c1)Nc1nn(C(=O)[C@@H](N)C(C)C)c2cc(C(F)(F)F)ccc12 [Compound 6, N-(((1-((S)-2-Amino-3-methylbutanoyl)-6-(trifluoromethyl)-1H-indazol-3-yl)amino)(((S)-1-methoxypropan-2-yl)amino)methylene)-3,4-difluorobenzamide hydrochloride salt] | < 4.80 | 
> 5.30 | CC(C)CN/C(=N/C(=O)c1ccc(F)c(F)c1)Nc1n[nH]c2c(O)ccc(F)c12 [Compound A-56] |  | > 5.30
4.80 to 5.30 | CCOCCCN/C(=N/C(=O)c1ccc(F)c(F)c1)Nc1n[nH]c2c(F)cccc12 [Compound A-77] |  | > 5.30
> 5.30 | COC[C@H](C)N/C(=N/C(=O)c1ccc(Cl)cc1)Nc1n[nH]c2cc(C(F)(F)F)ccc12 [Compound A-66] |  | > 5.30
> 5.30 | CC(C)(C)NC(=NC(=O)c1cccc(Cl)c1)Nc1n[nH]c2cc(Cl)c(F)cc12 [Compound A-104] |  | > 5.30

Compound | pIC50 [1] | pEC50 ([2]; Homo sapiens) | pEC50 [2]
COC[C@H](C)N/C(=N/C(=O)c1ccc(F)c(F)c1)Nc1n[nH]c2cc(C(F)(F)F)ccc12 [Compound 3, (S)-3,4-Difluoro-N-(((1-methoxypropan-2-yl)amino)((6-(trifluoromethyl)-1H-indazol-3-yl)amino)methylene)benzamide] | > 5.30 | > 5.30 | 
